# Assay results reported in patent US12161642B2, “Ferrochelatase inhibitors and methods of use” (INDIANA UNIVERSITY RESEARCH AND TECHNOLOGY CORPORATION, priority 2018, dated 2024).
# Read-outs that look alike come from different tables or passages of the source.
# How the values were obtained:
# [1] = target: recombinant human FECH (Homo sapiens (Human), UniProt P22830); assay: FECH enzymatic activity assay (Ni2+ mesoporphyrin IX formation, absorbance at 550 nm); assay type: biochemical
# Procedure: The human FECH expression plasmid pHDTF20 was obtained in E. coli cells from the Dailey Lab (University of Georgia). The cells were grown in Circlegrow medium (MP Biomedicals, LLC #3000-122) with ampicillin for 20 hours. Cells were harvested, lysed in a Tris-MOPS buffer and purified by immobilized metal affinity chromatography using HisPur Cobalt resin (Thermo Fisher #89965).
# The activity assay buffer was 100 mM Tris-HCl pH 8.0 with 0.05% octyl glucoside detergent. Assay reagents included 100 μM NiCl (Sigma #339350), 0.75 μM FECH enzyme and 100 μM mesoporphyrin (Sigma #258806) prepared in ammonium hydroxide (Santa Cruz #sc-214535).
# The kinetic assay was optimized for a 384-well format. For the 384-well assay, each well contained a 50 μL reaction with 40 μL buffer, 5 μL mesoporphyrin solution, 5 μL NiCl and FECH solution. […] This time point was used for the chemical screen.
# A mixture of assay buffer, NiCl and FECH enzyme (15 μL) was added to all wells on the assay plate using a MulitFlo dispenser. To start the reaction, 15 μL of a 333 μM mesoporphyrin solution in assay buffer was added to the plate, the plate spun down and the absorbance at OD=550 nm immediately read to establish a read at time 0. Plates were read for absorbance at OD=550 nm again at t=20 minutes and the activity was expressed as the change in the absorbance over the 20 minute reaction.
# Compounds, reordered from ChemDiv or synthesized as described above, were made to 10 mM in DMSO and tested in the FECH enzymatic assay at final concentrations of […] 100 μM (1% final DMSO concentration). IC50 values for the compounds were determined using GraphPad Prism software.
# A kinetic assay to monitor FECH enzymatic activity was adapted from a published protocol (Burden et a., Biochim Biophys Acta 1435, 191-197 (1999)).
# [2] = system: HRECs; assay: HREC proliferation assay (alamarBlue), GI50 determination; assay type: cell-based, human; details: proliferation of HRECs
# Procedure: Human retinal microvascular endothelial cells (HRECs) were cultured in EGM-2 medium (Lonza). Cells (2500/well) in EGM-2 medium were plated in 48 wells in the center of a 96-well black with clear bottom TC treated plate are allowed to attach overnight. The cells were treated with compounds such that final assay concentrations were 100 μM, 30 μM, 10 μM, 3 μM, 1 μM, 100 nM, and 10 nM with DMSO control (1% final DMSO concentration). Cells were allowed to proliferate for 44 hours prior to addition of alamarBlue. The alamarBlue reagent is a flurorometric/colorimetric redox reagent that is reduced in the presence of growing cells. The assay was completed with a read of fluorescence at excitation of 560 nm and emission of 590 nm. GI50 values were determined using GraphPad Prism software.
# [3] = system: FECH in HRECs; assay: PPIX accumulation assay in HRECs; assay type: cell-based, human; details: after 5-ALA treatment; vs. DMSO control
# Procedure: To confirm that ferrochelatase is inhibited in HRECs after treatment with compounds, the buildup of FECH's substrate PPIX was assayed fluorometrically. HRECs were plated for 80% confluency at the time of treatment in 6 cm dishes coated with attachment factor. Cells were then treated with compound in DMSO (1% DMSO final concentration) for 2 hours at 37° C. 5-Aminolevulinic acid, the first dedicated precursor in the heme synthesis pathway, was then added to the cells at 1 mM and allowed to incubate at 37° C. for another 2 hours. Cells were washed with PBS and flash frozen. Cells were lysed in 200 μL RIPA buffer and cleared by centrifugation at 14,000 g for 15 minutes at 4° C. The cleared lysates (20 μL) were added to wells of a 384 well plate in triplicate. An equal volume of 2M HC104 prepared in methanol was added to each well and PPIX was detected by immediately reading fluorescence on a Biotek Synergy H1 plate reader at 406 nm excitation and 610 nm emission. Total PPIX accumulation was determined by comparing fluorescence output with PPIX standards, prepared in DMSO and diluted in RIPA buffer and 2M HC104 (1:1 ratio) and read on the same plate. Protein in the cleared lysates was quantified with a standard Bradford assay and the amount of PPIX accumulation is expressed per mg protein.
# [4] = system: HRECs; assay: Matrigel-based tube formation assay; assay type: cell-based, human; details: 8 hours, total tubule length vs. DMSO control
# Procedure: The Matrigel-based tube formation assay was performed. Briefly, 50 μL Matrigel was allowed to solidify in a 96-well black, clear bottom plate at 37° C. for 20 minutes. HRECs were added to the solid Matrigel at 15,000 cells/well in 100 μL EGM-2 and dosed with appropriate concentrations of compound in DMSO, 1 μL/well. Tube formation was observed every 2 hours by brightfield microscopy and images were taken after 8 hours of tube formation. Six images per treatment were analyzed using the AngiogenesisAnalyzer plugin for ImageJ and HREC total tubule length for treated cells was normalized to DMSO controls. Statistical analysis was completed using GraphPad Prism, with ANOVA followed by Dunnett's post hoc tests used to compare treatments to control (DMSO).
# [5] = recombinant FECH, read-out: FECH IC50
# recombinant human FECH, sequence (P22830 55-423): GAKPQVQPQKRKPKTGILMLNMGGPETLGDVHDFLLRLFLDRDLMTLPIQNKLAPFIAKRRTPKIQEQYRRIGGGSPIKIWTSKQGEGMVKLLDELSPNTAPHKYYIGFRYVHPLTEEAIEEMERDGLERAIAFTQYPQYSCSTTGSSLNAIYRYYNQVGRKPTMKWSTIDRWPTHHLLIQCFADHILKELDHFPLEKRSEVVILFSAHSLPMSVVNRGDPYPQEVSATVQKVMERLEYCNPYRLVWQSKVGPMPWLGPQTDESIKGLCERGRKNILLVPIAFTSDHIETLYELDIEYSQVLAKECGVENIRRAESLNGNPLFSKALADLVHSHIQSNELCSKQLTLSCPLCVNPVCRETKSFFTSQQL
Compound,"IC50 [1, 5]","GI50 ([2]; Homo sapiens, HREC, 44 h)",other results
"CC(C)(C)c1ccc(-c2nc3[nH]c(CNc4ccc5ccccc5n4)cc(=O)n3n2)cc1 [Example 4e, 2-(4-(tert-butyl)phenyl)-5-((quinolin-2-ylamino)methyl)-[1,2,4]triazolo[1,5-a]pyrimidin-7(4H)-one]",0.178 µM,92.5 µM,buildup of PPIX in HRECs [3]: induced a buildup of PPIX; tube formation of HRECs [4]: blocked tube formation
"CC(C)(C)c1ccc(-c2nc3[nH]c(CNc4cccc(Cl)c4)cc(=O)n3n2)cc1 [Example 4h, 2-(4-(tert-butyl)phenyl)-5-(((3-chlorophenyl)amino)methyl)-[1,2,4]triazolo[1,5-a]pyrimidin-7(4H)-one]",–,> 100 µM,tube formation of HRECs [4]: blocked tube formation
"CCCc1cc(=O)n2nc(CNc3ccc(C)cc3)nc2[nH]1 [Example 5c, 5-propyl-2-((p-tolylamino)methyl)-[1,2,4]triazolo[1,5-a]pyrimidin-7(4H)-one]",0.293 µM,28.3 µM,tube formation of HRECs [4]: blocked tube formation
"CCCc1cc(=O)n2nc(CNc3ccccc3Cl)nc2[nH]1 [Example 5d, 2-(((2-chlorophenyl)amino)methyl)-5-propyl-[1,2,4]triazolo[1,5-a]pyrimidin-7(4H)-one]",> 100 µM,25.7 µM,tube formation of HRECs [4]: blocked tube formation
"CCCc1cc(=O)n2nc(CNc3ccc(C(C)(C)C)cc3)nc2[nH]1 [Example 5h, 2-(((4-(tert-butyl)phenyl)amino)methyl)-5-propyl-[1,2,4]triazolo[1,5-a]pyrimidin-7(4H)-one]",> 100 µM,3.8 µM,tube formation of HRECs [4]: blocked tube formation
"Cc1ccc(NCc2nc3[nH]c(C)cc(=O)n3n2)cc1 [Example 5w, 5-methyl-2-((p-tolylamino)methyl)-[1,2,4]triazolo[1,5-a]pyrimidin-7(4H)-one]",22.5 µM,> 100 µM,–
COc1ccc(Cl)cc1NCc1cc(=O)n2nc(-c3ccc(C(C)(C)C)cc3)nc2[nH]1 [Example D351-0303],0.808 µM,21.7 µM,–
CCCc1cc(=O)n2nc(CNc3ccc(Cl)cc3)nc2[nH]1 [Example D433-1739],0.829 µM,–,GI50 ([2]; 44 hours): 3.14 µM
CCCc1cc(=O)n2nc(CNc3cccc(OC)c3)nc2[nH]1 [Example D433-1741],2.86 µM,1.61 µM,–
CCCc1cc(=O)n2nc(CNc3cccc(Cl)c3C)nc2[nH]1 [Example D433-1750],2.15 µM,> 100 µM,–
O=c1c2c([nH]c3nc(CNc4cccc(Cl)c4)nn13)CCC2 [Example D433-1831],1.57 µM,> 100 µM,–
Cc1ccc(NCc2nc3[nH]c4c(c(=O)n3n2)CCC4)cc1Cl [Example D433-1848],0.227 µM,> 100 µM,–
"N-methylprotoporphyrin [NMPP, reference compound]",–,–,"FECH activity inhibition ([1]; 10 μM): completely inhibited; IC50 ([1]; positive control, in our assay, read-out: IC50 (FECH inhibition)): 0.45 µM; buildup of PPIX in HRECs [3]: induced a buildup of PPIX"

# Further compounds by falling IC50 [1, 5], results first:
"IC50 [1, 5]",Compound,"GI50 ([2]; Homo sapiens, HREC, 44 h)",other results
92 µM,"CCCc1cc(=O)n2nc(CNc3ccccc3C)nc2[nH]1 [Example 5a, 5-propyl-2-((o-tolylamino)methyl)-[1,2,4]triazolo[1,5-a]pyrimidin-7(4H)-one]",75.5 µM,tube formation of HRECs [4]: blocked tube formation
4.39 µM,CCCc1cc(=O)n2nc(CNc3cccc(C(F)(F)F)c3)nc2[nH]1 [Example D433-1725],1.17 µM,–
3.75 µM,COc1cccc(NCc2nc3[nH]c4c(c(=O)n3n2)CCC4)c1 [Example D433-1841],> 100 µM,–
2.99 µM,CCOC(=O)CCc1c(C)[nH]c2nc(CNc3ccc(C)c(Cl)c3)nn2c1=O [Example D433-1688],> 100 µM,–
1.39 µM,Cc1cccc(C)c1NCc1cc(=O)n2nc(-c3ccc(C(C)(C)C)cc3)nc2[nH]1 [Example D351-0312],> 100 µM,–
1.25 µM,CCc1ccccc1NCc1nc2[nH]c(C)c(Cc3ccc(Cl)cc3)c(=O)n2n1 [Example D433-1585],74.6 µM,–
1.05 µM,O=c1c2c([nH]c3nc(CNc4ccc(Cl)cc4)nn13)CCC2 [Example D433-1839],81.5 µM,–
1.02 µM,Cc1ccc(NCc2nc3[nH]c(C(C)C)cc(=O)n3n2)cc1Cl [Example D433-1798],> 100 µM,–
0.57 µM,CCCc1cc(=O)n2nc(CNc3ccc(C)c(Cl)c3)nc2[nH]1 [Example D433-1748],> 100 µM,–
0.346 µM,Cc1ccc(Cl)cc1NCc1cc(=O)n2nc(-c3ccccc3C)nc2[nH]1 [Example D351-0414],> 100 µM,–
0.0981 µM,Cc1ccc(Cl)cc1NCc1cc(=O)n2nc(-c3ccc(C(C)(C)C)cc3)nc2[nH]1 [Example D351-0310],42.3 µM,–
0.0614 µM,COc1ccc(NCc2nc3[nH]c(C)c(Cc4ccc(Cl)cc4)c(=O)n3n2)cc1 [Example D433-1582],> 100 µM,–
